Columns and labels:
[1] = biological target: T1, m1 muscarinic receptors (Homo sapiens, UniProt P11229); assay: Effect on ACh binding: ACh inhibition of 3H-NMS binding (indirect assay) on CHO cell membranes; conditions: tested at 3 μg/ml; 0.15 nM 3H-NMS, 30 μM ACh, 0.2 mM GTP, pH 7.4, 30° C., two hours
T1 construct: expressed in transfected cells; host or cells: CHO (Chinese Hamster Ovary) cells, membranes
T1 sequence (P11229 1-460): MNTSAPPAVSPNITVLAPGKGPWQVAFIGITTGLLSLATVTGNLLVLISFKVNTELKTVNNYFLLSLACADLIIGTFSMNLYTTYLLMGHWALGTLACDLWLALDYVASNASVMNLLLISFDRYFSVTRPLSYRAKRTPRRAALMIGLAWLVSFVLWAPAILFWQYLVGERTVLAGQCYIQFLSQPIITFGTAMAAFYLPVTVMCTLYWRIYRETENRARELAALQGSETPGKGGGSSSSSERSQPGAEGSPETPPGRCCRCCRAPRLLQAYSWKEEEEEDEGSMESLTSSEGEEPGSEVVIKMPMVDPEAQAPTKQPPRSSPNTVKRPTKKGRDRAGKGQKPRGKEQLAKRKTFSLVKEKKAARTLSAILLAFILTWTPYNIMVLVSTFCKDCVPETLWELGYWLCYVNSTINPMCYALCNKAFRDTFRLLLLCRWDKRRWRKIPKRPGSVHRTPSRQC
From the text: The compounds of the present invention may be assayed for allosteric activity at m1 muscarinic receptors as described below, although the assays we describe are not necessarily exhaustive, and other assays may be employed, as desired, to establish allosterism.
A suitable cell line is CHO (Chinese Hamster Ovary), which are readily engineered to express only one receptor sub-type.
To obtain the large amount of cell membranes required, plates of 530 cm^2 culture area were used. CHO cells which express m1, m2, m3 and m4 receptors were grown separately in MEM alpha medium containing 10% newborn calf serum and antibiotics. When cells reached confluence, they were washed twice with 10 ml of 20 mM HEPES containing 10 mM EDTA (pH 7.4), scraped into the same buffer and homogenized using a Polytron (trademark) homogenizer (setting 5-6 for 5 sec×2). Membrane pellets were obtained by centrifugation (40000×g, 10 min, 4° C.) and resuspended in 20 mM HEPES-0.1 mM EDTA (pH 7.4). Centrifugation and resuspension were repeated twice to wash the cell membranes. After measurement of membrane protein, the membranes (1 or 2 mg protein/ml) were stored at -70° C.
While the direct assay measures ACh (=acetylcholine) binding only to the high affinity state, the indirect assay measures effects only at the low affinity state. This is achieved by including 0.2 mM GTP in the assay. In this assay a fixed concentration of ^3 H-NMS (roughly the Kd value) is incubated in the absence and presence of a fixed concentration of ACh (at about the IC50 value) and the effects of three concentrations of test agent are measured, again in the absence and presence of ACh.
Calculating the effects on ^3 H-NMS binding alone is as follows: binding in the presence of the agent is expressed as a percentage of binding in its absence and, if the effect is inhibitory, an IC50 is estimated graphically. The assay also contains a single high concentration of ^3 H-NMS (4 nM, about 30 times the Kd) which provides an estimate of Bmax (i.e. maximum binding).
Expressing the effect on cold ACh binding will be explained with reference to FIGS. 1a, b and c. These figures show theoretical data and the effects of the transformations described below. In FIGS. 1a and 1b ^3 H-NMS and cold ACh are present at their Kd concentrations; in FIG. 1a the agent has a negative allosteric effect on ^3 H-NMS, while in FIG. 1b it has a positive allosteric effect on ^3 H-NMS. The left panels show the amount of ^3 H-NMS specifically bound in the assay. If the affinity of ACh is reduced by the test agent, as shown in the top panels of FIGS. 1a and 1b, the inhibition by ACh will decrease, but the counts recovered will also depend on the effect of the agent on ^3 H-NMS binding alone. To calculate the effect on ACh binding the inhibitory effect of ACh is first calculated as a percent of its own control in the absence of ACh. Next it is assumed that fractional inhibition is the same as tractional occupancy, and inhibition in the presence of agent is expressed as a percentage of inhibition in the absence of agent. The effects of these transformations are shown in the centre panels. Expressing inhibition by ACh in the presence of agent as a percentage of inhibition in the absence of agent allows the effect of the agent on cold ACh binding to be seen on the same scale as the effect on ^3 H-NMS and ^3 H-ACh binding and is generally preferred.
If the concentration of ^3 H-NMS used in the indirect assay is around the Kd value or less, the transformation described above provides a qualitative and semi-quantitative measure of the agent's effect. If a higher concentration of ^3 H-NMS is used, or if the agent has a positive allosteric effect on ^3 H-NMS, then the results of this transformation may be misleading. […] It is assumed that ACh binds to a single affinity state i.e. that its inhibition curve has a slope of 1, and so an IC50 is calculated from the percentage inhibition of control binding. […]

[2] = tested on: muscarinic receptors; conditions: reported; cited from earlier work
[3] = tested on: M2 muscarinic receptors in the heart; conditions: Tucek et al. 1993; cited from earlier work
[4] = tested on: heart receptors; conditions: cited from earlier work

Compound	Effect on ACh Binding [1]	also measured
Cc1cc(CC(=O)O)c([S+](C)[O-])c2c1c1ccccc1n2Cc1ccccc1 (centres unmarked) [Example 200, (9-Benzyl-1-methylsulfinyl-4-methylcarbazol-2-yl)acetic Acid]	3.59	
Cc1cc(CC(=O)O)c(S(C)(=O)=O)c2c1c1ccccc1n2Cc1ccccc1 [Example 202, (9-Benzyl-1-methylsulfonyl-4-methylcarbazol-2-yl)acetic Acid]	2.66	
Cc1cc(CC(=O)O)c(SCc2ccccc2)c2c1c1ccccc1n2C [Example 206, (1-Benzylthio-4,9-dimethylcarbazol-2-yl)acetic Acid]	2.13	
CCCSc1c(CC(=O)O)cc(C)c2c3ccccc3n(C)c12 [Example 210, (4,9-Dimethyl-1-propylthiocarbazol-2-yl)acetic Acid]	2.03	
CSc1c(CC(=O)O)cc(C)c2c3ccccc3n(CCc3ccccc3)c12 [Example 212, [4-Methyl-1-methylthio-9-(2-phenethyl)carbazol-2-yl]acetic Acid]	4.93	
CSc1c(CC(=O)O)cc(C)c2c3ccccc3n(CCCc3ccccc3)c12 [Example 214, [4-Methyl-1-methylthio-9-(3-phenylpropyl)carbazol-2-yl]acetic Acid]	4.34	
CCCSc1c(CC(=O)O)cc(C)c2c3ccccc3n(Cc3ccccc3)c12 [Example 217, (9-Benzyl-4-methyl-1-n-propylthiocarbazol-2-yl)acetic Acid]	3.99	
Cc1cc(CC(=O)O)c(SC(C)C)c2c1c1ccccc1n2Cc1ccccc1 [Example 218, (9-Benzyl-4-methyl-1-i-propylthiocarbazol-2-yl)acetic Acid]	4.91	
CSc1c(CC(=O)O)cc(C)c2c3ccccc3n(CCc3cccc(Cl)c3)c12 [Example 229, {9-[2-(3-Chlorophenyl)ethyl]-4-methyl-1-methylthiocarbazol-2-yl}acetic Acid]	5.79	
CSc1c(CC(=O)O)cc(C(F)(F)F)c2c3ccccc3n(Cc3ccccc3)c12 [Example 231, (9-Benzyl-1-methylthio-4-trifluoromethyl carbazol-2-yl)acetic Acid]	3.78	
CSc1c(CC(=O)O)ccc2c1c1ccccc1n2Cc1ccccc1 [Example 233, (9-Benzyl-4-methylthiocarbazol-3-yl)acetic Acid]	2.26	
CC(C)Sc1c(CC(=O)O)cc(C(C)C)c2c3ccccc3n(Cc3ccccc3)c12 [Example 235, (9-Benzyl-4-isopropyl-1-isopropylthiocarbazol-2-yl)acetic Acid]	2.82	
COc1cc2c3cc1Oc1cc(ccc1O)C[C@@H]1c4c(cc(OC)c(O)c4Oc4ccc(cc4)C[C@@H]3N(C)CC2)CC[N+]1(C)C [Tubocurarine]		allosteric effects on antagonist binding [2]: negative allosteric effects on antagonist binding
C=CC[N@@+]12CC[C@@]34c5ccccc5N5/C=C6/[C@H]7C[C@H]8[C@@]9(CC[N@@+]8(CC=C)C/C7=C/CO)c7ccccc7N(/C=C(/[C@@H](C[C@@H]31)/C(=C\CO)C2)[C@H]54)[C@@H]69 [alcuronium]		effect on affinity of M2 muscarinic receptors for NMS [3]: allosterically increases the affinity of M2 muscarinic receptors in the heart for NMS
CC[N+](CC)(CC)CCOc1cccc(OCC[N+](CC)(CC)CC)c1OCC[N+](CC)(CC)CC [gallamine]		action on heart receptors ([4]; Riker and Wescoe 1951): negative action on heart receptors; competitive antagonism for acetylcholine ([4]; subsequently established): not a competitive antagonist for acetylcholine
batrachotoxin		allosteric effects on antagonist binding [2]: negative allosteric effects on antagonist binding
